A short description of the first data set: Shelf life of aqueous dispersion in 20 oz beverage. In kind it is physicochemical. To be noted: aqueous dispersion in 20 oz beverage, 22-25° C.; stable = no settling, phase separation or precipitates. Here is the method: As set forth in the examples below, stable aqueous dispersions containing bioactive compounds were prepared by using the solubilization and stabilization process. The resulting dispersions were fine, homogeneous, and stable. There were no settling, phase separation, and precipitates on the side of the bottle (See FIG. 3 and Table 1).
Consider `O=c1c(O)c(-c2ccc(O)c(O)c2)oc2cc(O)cc(O)c12` [Quercetin, 2-(3,4-dihydroxyphenyl)-3,5,7-trihydroxy-4H-chromen-4-one], for which the “Shelf Life (22-25° C.)” value is “Stable after at least 6 months”. With `C[C@@H]1CC[C@H]2[C@@H](C)C(=O)O[C@@H]3O[C@@]4(C)CC[C@@H]1[C@]32OO4` [Artemisinin, reference compound], the “Shelf Life (22-25° C.)” value is given as “Stable after at least 3 months”. As to `O=C1C[C@@H](c2ccc(O)cc2)Oc2cc(O)cc(O)c21` [Naringenin], the “Shelf Life (22-25° C.)” value is on record as “Stable after at least 3 months”. For the compound `COc1ccc([C@@H]2CC(=O)c3c(O)cc(O[C@@H]4O[C@H](CO[C@@H]5O[C@@H](C)[C@H](O)[C@@H](O)[C@H]5O)[C@@H](O)[C@H](O)[C@H]4O)cc3O2)cc1O` [Hesperedin], the “Shelf Life (22-25° C.)” value is “Stable after at least 3 months”. On the same count and under the same terms, to `Oc1ccc(C=Cc2cc(O)cc(O)c2)cc1` [Resveratrol] belongs “Stable after at least 3 months”; to `COc1ccc2oc(-c3ccc(OC)c(OC)c3)c(OC)c(=O)c2c1` [Tetramethoxyflavone, 3,6,3′,4′-Tetramethoxyflavone], “Stable after at least 3 months”; to `COc1cc(/C=C/C(=O)CC(=O)/C=C/c2ccc(O)c(OC)c2)ccc1O` [Curcumin], “Stable after at least 3 months”.

The same data set, now with this note: depending on the dispersion stabilizer(s) used.
In the case of `O=c1c(O)c(-c2ccc(O)c(O)c2)oc2cc(O)cc(O)c12` [Quercetin, 2-(3,4-dihydroxyphenyl)-3,5,7-trihydroxy-4H-chromen-4-one], the “Length of time quercetin stays dispersed in a beverage” value is recorded as “about 12 hours to about six months or longer”.
